The record followed here is PubChem BioAssay AID256 (DTP/NCI, 2004).

Where “and” joins values, the source holds several entries; their conditions need not be identical. Equal values may be shown once. Toxic doses and inconclusive results are not listed.

The subject of this test is CD2F1 mice, L1210 leukemia ip, survival T/C. As to the kind of experiment: NCI In Vivo Anticancer Drug Screen. Data for tumor model L1210 Leukemia (intraperitoneal) in CD2F1 (CDF1) mice. Particulars: endpoint: mean survival time, higher = longer survival. A digest of the protocol:
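In this screen, transplantable tumors were grown in mice given either the compound or its vehicle. Results were expressed as the treated measurement relative to the control measurement.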

[1] abbreviates: dose: 50.0 mg/kg/injection, schedule: Q04DX003 (ip), vehicle: saline.
The mark [2] stands for this setting: dose: 100.0 mg/kg/injection, schedule: Q04DX003 (ip), vehicle: saline.
Where [3] appears, read: dose: 100.0 mg/kg/injection, schedule: Q01DX009 (ip), vehicle: saline with Tween-80.
Where [4] appears, read: dose: 200.0 mg/kg/injection, schedule: Q01DX009 (ip), vehicle: saline with Tween-80.
[5] abbreviates: dose: 400.0 mg/kg/injection, schedule: Q01DX009 (ip), vehicle: saline with Tween-80.
Setting [6] is: dose: 200.0 mg/kg/injection, schedule: Q04DX003 (ip), vehicle: saline with Tween-80.

Turning to `O=C(O)c1cc2ccccc2oc1=O`, the T/C runs as follows: (dose: 2.5 mg/kg/injection, schedule: Q01DX009 (ip), vehicle: Klucel (hydroxypropylcellulose) (HPC)) 103 % of control; (dose: 5.0 mg/kg/injection, schedule: Q01DX009 (ip), vehicle: Klucel (hydroxypropylcellulose) (HPC)) 108 % of control; (dose: 10.0 mg/kg/injection, schedule: Q01DX009 (ip), vehicle: Klucel (hydroxypropylcellulose) (HPC)) 108 % of control; (dose: 25.0 mg/kg/injection, schedule: Q04DX003 (ip), vehicle: saline with Tween-80) 104 % of control; (dose: 50.0 mg/kg/injection, schedule: Q04DX003 (ip), vehicle: saline with Tween-80) 112 % of control.
As for `CS(=O)(=O)OCCCN(CCCOS(C)(=O)=O)CCCN1CCOCC1`, the T/C (dose: 10.0 mg/kg/injection, schedule: Q01DX009 (ip), vehicle: saline) is 197 % of control; the T/C (dose: 12.0 mg/kg/injection, schedule: Q01DX001 (ip), vehicle: saline) was 118 % of control; the T/C (dose: 12.5 mg/kg/injection, schedule: Q04DX003 (ip), vehicle: saline) is 122 % of control; the T/C (dose: 20.0 mg/kg/injection, schedule: Q01DX001 (ip), vehicle: saline) is 150 % of control; the T/C (dose: 20.0 mg/kg/injection, schedule: Q01DX005 (ip), vehicle: saline) was 152 % of control; the T/C (dose: 20.0 mg/kg/injection, schedule: Q01DX009 (ip), vehicle: saline) was 230 % of control. Besides, the T/C is 152 % of control (dose: 20.0 mg/kg/injection, schedule: Q02DX003 (ip), vehicle: saline); 156 % of control (dose: 20.0 mg/kg/injection, schedule: Q04DX003 (ip), vehicle: saline); 200 % of control (dose: 40.0 mg/kg/injection, schedule: Q01DX001 (ip), vehicle: saline); 182 % of control (dose: 40.0 mg/kg/injection, schedule: Q01DX005 (ip), vehicle: saline); 238 % of control (dose: 40.0 mg/kg/injection, schedule: Q01DX009 (ip), vehicle: saline); 166 % of control (dose: 40.0 mg/kg/injection, schedule: Q02DX003 (ip), vehicle: saline). For the same molecule, the T/C was 180 % of control (dose: 50.0 mg/kg/injection, schedule: Q01DX009 (ip), vehicle: saline); 122 % of control under setting [1]; 159 % of control (dose: 60.0 mg/kg/injection, schedule: Q01DX001 (ip), vehicle: saline); 189 % of control (dose: 60.0 mg/kg/injection, schedule: Q01DX005 (ip), vehicle: saline); 230 % of control (dose: 60.0 mg/kg/injection, schedule: Q01DX009 (ip), vehicle: saline); 191 % of control (dose: 60.0 mg/kg/injection, schedule: Q02DX003 (ip), vehicle: saline). In addition, the T/C (dose: 60.0 mg/kg/injection, schedule: Q04DX003 (ip), vehicle: saline) is 190 % of control; the T/C (dose: 75.0 mg/kg/injection, schedule: Q04DX003 (ip), vehicle: saline) is 162 % of control; the T/C (dose: 80.0 mg/kg/injection, schedule: Q01DX005 (ip), vehicle: saline) was 234 % of control; the T/C (dose: 80.0 mg/kg/injection, schedule: Q01DX009 (ip), vehicle: saline) was 290 % of control; the T/C (dose: 80.0 mg/kg/injection, schedule: Q02DX003 (ip), vehicle: saline) is 189 % of control; the T/C (dose: 80.0 mg/kg/injection, schedule: Q04DX003 (ip), vehicle: saline) was 206 % of control. Moreover, the T/C was 153 % of control and 265 % of control (dose: 100.0 mg/kg/injection, schedule: Q01DX001 (ip), vehicle: saline); 281 % of control (dose: 100.0 mg/kg/injection, schedule: Q01DX005 (ip), vehicle: saline); 190 % of control and 270 % of control (dose: 100.0 mg/kg/injection, schedule: Q01DX009 (ip), vehicle: saline); 215 % of control (dose: 100.0 mg/kg/injection, schedule: Q02DX003 (ip), vehicle: saline); 165 % of control and 236 % of control under setting [2]; 197 % of control (dose: 150.0 mg/kg/injection, schedule: Q04DX003 (ip), vehicle: saline). The T/C runs as follows: (dose: 200.0 mg/kg/injection, schedule: Q01DX001 (ip), vehicle: saline) 234 % of control; (dose: 200.0 mg/kg/injection, schedule: Q01DX009 (ip), vehicle: saline) 105 % of control; (dose: 200.0 mg/kg/injection, schedule: Q04DX003 (ip), vehicle: saline) 228 % of control and 297 % of control.
For `CC(C)(C)N(Cc1ccccc1)Cc1ccccc1`, the T/C by setting is: under setting [3], 102 % of control; under setting [4], 98 % of control; under setting [5], 101 % of control.
On to `c1ccc(C2CC([P+](c3ccccc3)(c3ccccc3)c3ccccc3)=NN2CC[P+](c2ccccc2)(c2ccccc2)c2ccccc2)cc1` (stereo not given), for which the T/C is 101 % of control (dose: 1.56 mg/kg/injection, schedule: Q04DX003 (ip), vehicle: saline with Tween-80); 96 % of control (dose: 3.13 mg/kg/injection, schedule: Q04DX003 (ip), vehicle: saline with Tween-80); 93 % of control (dose: 6.25 mg/kg/injection, schedule: Q04DX003 (ip), vehicle: saline with Tween-80).
With `CCOC(CSCC#N)OCC`, the T/C runs as follows: (dose: 12.5 mg/kg/injection, schedule: Q01DX009 (ip), vehicle: saline sonified) 102 % of control; (dose: 12.5 mg/kg/injection, schedule: Q04DX003 (ip), vehicle: saline sonified) 98 % of control; (dose: 25.0 mg/kg/injection, schedule: Q01DX009 (ip), vehicle: saline sonified) 104 % of control; (dose: 25.0 mg/kg/injection, schedule: Q04DX003 (ip), vehicle: saline sonified) 98 % of control; (dose: 50.0 mg/kg/injection, schedule: Q01DX009 (ip), vehicle: saline sonified) 102 % of control; (dose: 50.0 mg/kg/injection, schedule: Q04DX003 (ip), vehicle: saline sonified) 98 % of control.
As to `Cc1c(Cl)cccc1NC(=O)Nc1cccc2ccccc12`, the T/C reads like this: under setting [3], 113 % of control; (dose: 100.0 mg/kg/injection, schedule: Q04DX003 (ip), vehicle: saline with Tween-80) 93 % of control; under setting [4], 102 % of control; under setting [6], 102 % of control; under setting [5], 96 % of control; (dose: 400.0 mg/kg/injection, schedule: Q04DX003 (ip), vehicle: saline with Tween-80) 100 % of control.
As to `O=C1NC(=NC2CCCCC2)C2(CCNCC2)N1c1ccccc1`, the T/C was 102 % of control (dose: 50.0 mg/kg/injection, schedule: Q01DX001 (ip), vehicle: saline with Tween-80); 106 % of control (dose: 100.0 mg/kg/injection, schedule: Q01DX001 (ip), vehicle: saline with Tween-80); 104 % of control (dose: 200.0 mg/kg/injection, schedule: Q01DX001 (ip), vehicle: saline with Tween-80).
With `COc1cc2c(c(Oc3ccc(C)cc3)c1)CN(C)CC2`, the T/C is, setting by setting: (dose: 25.0 mg/kg/injection, schedule: Q04DX003 (ip), vehicle: saline) 105 % of control; under setting [1], 100 % of control; under setting [2], 105 % of control.
`CCOC(=O)C(=CNc1ccc(OC)cc1[N+](=O)[O-])C(=O)OCC`: the T/C (dose: 100.0 mg/kg/injection, schedule: Q01DX005 (ip), vehicle: saline with Tween-80) was 103 % of control; the T/C under setting [3] was 93 % of control; the T/C (dose: 200.0 mg/kg/injection, schedule: Q01DX005 (ip), vehicle: saline with Tween-80) is 97 % of control; the T/C under setting [4] was 89 % of control; the T/C (dose: 400.0 mg/kg/injection, schedule: Q01DX005 (ip), vehicle: saline with Tween-80) is 91 % of control; the T/C under setting [5] is 89 % of control.
For `O=C(C[n+]1cccc2ccccc21)c1ccc([N+](=O)[O-])cc1`, the T/C runs as follows: (dose: 25.0 mg/kg/injection, schedule: Q04DX002 (ip), vehicle: saline with Tween-80) 102 % of control; (dose: 50.0 mg/kg/injection, schedule: Q04DX002 (ip), vehicle: saline with Tween-80) 98 % of control; (dose: 100.0 mg/kg/injection, schedule: Q04DX002 (ip), vehicle: saline with Tween-80) 102 % of control.
Regarding `CO[C@H]1/C=C/O[C@@]2(C)Oc3c(C)c(O)c4c(O)c(c(/C=N/N5C(C)CN(Cc6ccccc6)CC5C)c(O)c4c3C2=O)NC(=O)/C(C)=C\C=C\[C@H](C)[C@H](O)[C@@H](C)[C@@H](O)[C@@H](C)[C@H](OC(C)=O)[C@@H]1C` (stereo not given in full), the T/C is 96 % of control (dose: 50.0 mg/kg/injection, schedule: Q01DX009 (ip), vehicle: saline with Tween-80); 100 % of control under setting [3]; 96 % of control under setting [4]; 90 % of control under setting [6].
